The record followed here is US20210353595A1, “USE OF MELATONIN IN PREPARATION OF MEDICAMENT FOR INHIBITING AND/OR KILLING BACTERIUM” (priority 2020, published 2021).

Values after ≈ are worked out from the molar mass of the structure shown. “Also recorded” adds a separate entry of the source.

The subject of experiment [1] is gram-negative bacteria and gram-positive bacteria. The experiment in a line: MIC/MBC test, summary over all tested bacteria. The format is cell-based. The conditions noted are these: range over all gram-negative and gram-positive bacteria of Table 1. As to the method: 1 mL of a fresh suspension of bacteria (1×10^9 CFU) at the logarithmic growth stage was added into 100 mL containing different concentrations (50 mg/mL, 25 mg/mL, 12.5 mg/mL, 6.25 mg/mL, 3.125 mg/mL, 1.5625 mg/mL, 0.78125 mg/mL, 0.390625 mg/mL) of melatonin. A melatonin (MT)-free solution diluted with DMSO was used as a control group. The samples were shaken at 37° C. and a rotation speed of 120 r/min with protection from light for 12 hours, and then subjected to detection of the minimal inhibitory concentration (MIC) of MT on bacteria. Then, 0.1 mL of the aforementioned transparent bacterial solution was pipetted onto a sterilized agar plate of a specific culture medium and coated evenly, incubated in an incubator at 37° C. for 24 hours, and then subjected to detection of the minimum bactericidal concentration (MBC) of MT on pathogens, wherein the minimum concentration of MT at which no bacterium grew was the MBC of MT on pathogens. Each experiment was carried out for 3 times, and each group was set in triplicate.

In experiment [2] the test system is Pasteurella multocida. Nature of the experiment: Prevention of Pasteurella multocida infection by melatonin in mice. The format is in vivo, C57BL/6 mice. As to the method: C57 mice purchased from the Third Military Medical University were randomly divided into four groups (10 mice in each group): a group of Pasteurella multocida+solvent control, a group of Pasteurella multocida+MT (30 mg/kg), a group of Pasteurella multocida+MT (60 mg/kg), and a group of Pasteurella multocida+MT (120 mg/kg). Before Pasteurella multocida infection, MT was injected intraperitoneally to the experimental group (injection once in the morning) for consecutive 7 days (P) or 6 days (P-1), while the control mice received the equal amount of DMSO. Thereafter, mice were infected by intraperitoneal injection of suspension of Pasteurella multocida ([…]). The survival rate of mice within 7 days was monitored and recorded. Blood samples were collected from mice, and the serum was stored at −20° C. for later ELISA test. Lung samples were collected and homogenized aseptically, and then the bacterial load was quantified by serial dilution, plate inoculation and CFU counting.
(§1) In order to measure the colonization of mouse lung bacteria before and after melatonin treatment, the lung tissues of mice were collected 24 hours and 32 hours after infection. The tissues were homogenized under aseptic conditions, and the bacterial content was determined by continuous dilution of 10 times in saline. These different dilutions were coated on the Martin broth agar in triplicate and incubated in a constant-temperature incubator at 37° C. for 24 hours to count the bacterial CFU.

Experiment [3] has as its system Pneumococcus. The experiment in a line: Growth curve with melatonin and citric acid. It is filed as cell-based, Diplococcus pneumoniae. Conditions: MT 1-3 mg/mL, FIG. 27. As to the method:
(§2) In additional studies, 1 mL of Klebsiella pneumoniae, Pseudomonas aeruginosa, Diplococcus pneumoniae and Streptococcus pneumoniae at the logarithmic growth stage was added into 100 mL of fresh and sterile Martin broth medium containing different concentrations of melatonin and citric acid (CA) (MT-1 mg/mL, MT-1 mg/mL-CA-1 mg/mL, MT-1 mg/mL-CA-2 mg/mL, MT-1 mg/mL-CA-3 mg/mL; MT-2 mg/mL, MT-2 mg/mL-CA-1 mg/mL, MT-2 mg/mL-CA-2 mg/mL, MT-2 mg/mL-CA-3 mg/mL; MT-3 mg/mL, MT-3 mg/mL-CA-1 mg/mL, MT-3 mg/mL-CA-2 mg/mL MT-3 mg/mL-CA-3 mg/mL).

The subject of experiment [4] is Pseudomonas aeruginosa. The experiment in a line: Growth curve with melatonin and citric acid. It is filed as cell-based. Conditions: MT 1-3 mg/mL, FIG. 27. On the procedure:
as §2

Experiment [5] relates to Klebsiella pneumoniae. Nature of the experiment: Growth curve with melatonin and citric acid. It is filed as cell-based. Conditions: MT 1-3 mg/mL, FIG. 27. On the procedure: as §2
The test system of experiment [6] is citrate synthase in Pneumococcus. Nature of the experiment: Citrate synthase activity of bacteria after treatment. The format is cell-based, Diplococcus pneumoniae. The conditions noted are these: MT 1-3 mg/mL, 12 h, also with exogenous citric acid, FIG. 28. As to the method: Further, 1 mL of Klebsiella pneumoniae, Pseudomonas aeruginosa, Diplococcus pneumoniae and Streptococcus pneumoniae at the logarithmic growth stage was added into 100 mL of fresh and sterile Martin broth liquid medium containing different concentrations of melatonin and citric acid (MT-1 mg/mL, MT-2 mg/mL, MT-3 mg/mL, CA-1 mg/mL, CA-2 mg/mL, CA-3 mg/mL, MT-1 mg/mL-CA-1 mg/mL, MT-2 mg/mL-CA-2 mg/mL, MT-3 mg/mL-CA-3 mg/mL) added was. Melatonin-free DMSO was used as the solvent control group, and the bacterial cells were cultured in a constant-temperature shaker at 37° C. and 220 rpm for 12 h. Thereafter, 1 mL of the bacterial solution was pipetted and centrifuged at 3000 r/min for 10 minutes. The bacterial cells were then collected and determined for citrate synthase activity according to the protocol of the instructions for the kit. Each experiment was repeated three times, and each group was set in triplicate.

Experiment [7] concerns Pasteurella multocida. Nature of the experiment: Treatment of Pasteurella multocida infection by melatonin in mice. The format is in vivo, C57BL/6 mice. Conditions: intraperitoneal at 30 minutes, 6, 12 and 18 hours after infection. As to the method: Mice were randomly divided into four groups (10 mice in each group) as described in #1, described above. In the experimental group, after infection with 2.2×10^5 CFU of Pasteurella multocida through intraperitoneal injection, MT was injected intraperitoneally for four times, with the first injection 30 minutes after Pasteurella multocida infection, then the injection was performed once every 6 hours, for three times in total. Control mice were given an equal amount of DMSO at the same four time points. Subsequently, the survival rate of mice within 7 days was recorded. At the same time, mice were euthanized at 12 h, 16 h, 24 h and 32 h after infection to collect tissue and serum samples for later ELISA and bacterial count analysis.
as §1

Experiment [8] relates to Pasteurella multocida. The experiment in a line: LIVE/DEAD BacLight integrity of bacterial cell membrane. It is filed as cell-based. Conditions: melatonin greater than the MIC concentration; 8, 12, 16 hours; time- and dose-dependent; FIG. 9. On the procedure: The integrity of bacterial cell membrane was evaluated with a LIVE/DEAD BacLight bacterial detection kit. 1 mL of bacterial culture was centrifuged at 3000 rpm for 10 minutes, the supernatant was removed, and the cells were washed with 10 mL of 0.85% NaCl for 3 times. The precipitated cells were resuspended and mixed with 1 mL of 0.85% NaCl. Then a mixture of SYTO9 fluorescent nucleic acid dye and propidium iodide mixed at the equal volume (3 μL each) was added into the resuspended solution. The mixture was thoroughly mixed and incubated in the dark at room temperature for 15 minutes. 5 μL of suspension of stained bacteria was added between a slide glass and a 18 mm square cover glass. (The combination of two nucleic acid dyes in this kit can distinguish living bacteria with intact membranes from dead bacteria with damaged membranes.) The living bacteria were dyed green with SYTO9, while the dead bacteria presented as red because of the interaction between propidium iodide and the double-stranded DNA of the bacteria. The fluorescence micrographs of stained bacteria were taken by OLYMPUS IX51 inverted microscope. Each experiment was carried out in triplicate for three times.

Setting [9] is: preventive dose 60 mg/kg or above, intraperitoneal, consecutive 7 days before infection.

As to `COc1ccc2[nH]cc(CCNC(C)=O)c2c1` [melatonin, N-acetyl-5-methoxytryptamine], in experiment [1], the MBC is 3.12 to 50 mg/mL (≈ 13.5 to 215 mM) and the MIC fell in the range of 1.56 to 50 mg/mL (≈ 6.73 to 215 mM). For the same compound, in experiment [2] (melatonin removed 24 hours before infection (P-1, 6 days), FIGS. 33 and 34), the “preventive effect on the bacterial infection” value was “significant preventive effect”. Besides, in experiment [2] (setting [9]), the “bacterial count in the lung” value is recorded as “significantly reduced” and the “survival rate of mice” value is “significantly improved”. Moreover, in experiment [3], the antibacterial activity result was “exhibits antibacterial activity”. Also, the antibacterial activity entry in experiment [4] was “exhibits antibacterial activity”. For the same compound, the antibacterial activity result in experiment [5] is on record as “exhibits antibacterial activity”. The “enzyme activity of citrate synthase” value in experiment [6] is listed as “not influenced”. Besides, the survival rate result in experiment [7] (FIG. 35) is “improving the survival rate”. Also, the “bacterial colonization in mouse lungs” value in experiment [7] (FIG. 36) is listed as “reducing bacterial colonization”. In addition, in experiment [8], the “damage to bacterial cell membrane (SYTO9 / propidium iodide fluorescence)” value was “the red fluorescence increased and the green fluorescence decreased; also recorded: damages the cell membrane”.
